These results are taken from patent US7897759B2, “Metabolically stable puromycin analogs” (MUSC Foundation for Research Development, priority 2007, dated 2011).

Data set [1] is described as follows: Body weight / toxicity in murine mammary tumor model. Format: in vivo. On the procedure: Model: JC murine mammary adenocarcinoma cells growing in Balb/c mice.
(§1) Treatment: Drug was administered by intraperitoneal injection on days 7, and 12 at 50 mg/kg dissolved in 50% DMSO:50% PBS.

In a further data set the test system is leukemia (HL-60) cells. The data set can be described thus: MTS cytotoxicity assay in HL-60 cells. Format: cell-based. Conditions: 72 h, FIG. 2. As for the experimental part: HL-60 cells were plated at a density of 4,000 cells/well (99 μL/well) in a 96-well microtiter plate. The drug (dissolved in 1 μL of DMSO/medium solution) was added and cells were incubated at 37° C. for 72 h. 20 μL of a solution of MTS/PMS (Promega, 5% PMS/MTS) was then added, the cells were incubated for 1 h, after which absorbance was read at 490 nm.
In general terms: Tetrazolium dyes change colour on reduction, which living cells bring about.

For data set [2], the system named is JC murine mammary adenocarcinoma cells growing in Balb/c mice. Briefly: Antitumor effects in murine mammary tumor model. Type of data set: in vivo. As to conditions: 50 mg/kg intraperitoneal on days 7 and 12, FIG. 3. On the procedure:
Model: JC murine mammary adenocarcinoma cells growing in Balb/c mice. Treatment is started when tumor are small, typically ˜20 mm3.
as §1

The subject of data set [3] is breast cancer (MCF-7) cells. The data set can be described thus: SRB cytotoxicity assay in MCF-7 cells. Conditions: 72 h, FIG. 1. Format: cell-based. As for the experimental part:
Dump media and wash wells with PBS. Add approx 100 μL 10% TCA to wells using squirt bottle. Incubate at 4° C. for 30 minutes to 1 hour. Dump TCA and wash plate 5 times with water (use beaker for washes). Add 100 ul SRB dye to wells. Incubate at room temperature for 30 minutes. Dump dye and wash plate 4 times with 1% acetic acid (use beaker for washes). Add 200 μL Tris Base to wells. Incubate at room temperature with agitation for at least 1 hour. Use Softmax pro plate reader with SRB560.
MCF-7 cells were plated at a density of 50,000 cells/well (99 μL/well) in a 96-well microtiter plate and allowed to adhere at 37° C. for 4 h. The drug (dissolved in 1 μL of DMSO/medium solution) was added and cells were incubated at 37° C. for 72 h. 100 μL of a 10% solution of trichloroacetic acid was then added and the cells were incubated for 1 h at 4° C. The supernatant was removed and the plate was washed 5 times with water. 100 μL of SRB dye (Promega) was added and the plate was incubated at rt for 30 min. The dye was removed and the plate was washed 4 times with 1% acetic acid solution. 200 μL of Tris Base was added, and the plate was incubated at rt with agitation for 1 h. Absorbance was read at 560 nm.

In data set [4] the test system is Bacillus cereus ATCC 10987. Conditions: B. cereus; Gilbert et al., Tetrahedron 2005; cited from earlier work.
Data set [5] relates to Bacillus subtilis ATCC 6633. As to conditions: B. subtilis; Gilbert et al., Tetrahedron 2005; cited from earlier work.

On to `CN(C)c1ncnc2c1ncn2[C@@H]1O[C@H](CO)[C@H](CC(=O)[C@@H](N)Cc2ccccc2)C1O` (stereo partly drawn) [GG-48, 9-{3-[1-(3-amino-2-oxo-4-phenyl)butyl]-3-deoxy-D-ribofuranosyl}-6-dimethylaminopurine], for which the toxicity result in data set [1] (50 mg/kg intraperitoneal on days 7 and 12) was “no obvious toxicity”. Moreover, the “effect on body weight” value in data set [1] (50 mg/kg intraperitoneal, during the treatment period (or after), FIG. 4) is reported as “no loss of body weight”. The “cytotoxic activity (killing curve) versus puromycin” value (with leukemia (HL-60) cells; in data set [3]) was “killing curves overlapping those of puromycin” each time. The “effect on tumor growth” value in data set [2] is “suppressed tumor growth”.
Turning to `COc1ccc(C[C@H](N)C(=O)N[C@H]2[C@@H](O)[C@H](n3cnc4c(N(C)C)ncnc43)O[C@@H]2CO)cc1` [puromycin], the “antimicrobial activity (MIC)” value in data set [4] and in data set [5] was 3.13 µg/mL throughout.
